Assay results published in the supplement of paper PMC3937590.

How the values were obtained:
Test in all cases: -log10 GI50 (growth inhibition 50%) (-log10(M)); higher = more potent growth inhibition
HCC1143 = test system: HCC1143
In short: (§1)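 Breast cancer cell lines were exposed to each compound for 72 hours at nine doses in 1:5 serial dilution, in triplicate, with a luminescence read-out against a time-zero plate. A Gompertz curve was fitted to the dose-response data by nonlinear least squares. The value is minus log10 of GI50, the molar concentration giving the set level of growth inhibition. Values equal to the top dose carry a < qualifier.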

CAMA1 = test system: CAMA1
In short: as §1

184B5 = test system: 184B5
In short: as §1

SUM1315MO2 = test system: SUM1315MO2
In short: as §1

AU565 = test system: AU565
In short: as §1

MDAMB157 = test system: MDAMB157
In short: as §1

MDAMB134VI = test system: MDAMB134VI
In short: as §1

HCC2185 = test system: HCC2185
In short: as §1

HCC1419 = test system: HCC1419
In short: as §1

600MPE = test system: 600MPE
In short: as §1

HCC1569 = test system: HCC1569
In short: as §1

HCC1395 = test system: HCC1395
In short: as §1

MCF10A = test system: MCF10A
In short: as §1

BT549 = test system: BT549
In short: as §1

HCC3153 = test system: HCC3153
In short: as §1

MCF7 = test system: MCF7
In short: as §1

HCC1806 = test system: HCC1806
In short: as §1

ZR751 = test system: ZR751
In short: as §1

MX1 = test system: MX1
In short: as §1

SUM225CWN = test system: SUM225CWN
In short: as §1

## O=c1[nH]c2ccccc2n1C1CCN(Cc2ccc(-c3[nH]c4cc5ncnc5cc4nc3-c3ccccc3)cc2)CC1 [Akt inhibitor VIII]
HCC1143
  -log10 GI50: 4.87
CAMA1
  -log10 GI50: 5.17
184B5
  -log10 GI50: 5.56
SUM1315MO2
  -log10 GI50: 5.34
AU565
  -log10 GI50: 5.61
MDAMB157
  -log10 GI50: 4.86
MDAMB134VI
  -log10 GI50: 5.05
HCC2185
  -log10 GI50: 5.86
HCC1419
  -log10 GI50: 6.03
600MPE
  -log10 GI50: 5.15
HCC1569
  -log10 GI50: 5.07
HCC1395
  -log10 GI50: 5.25
MCF10A
  -log10 GI50: 5.34
BT549
  -log10 GI50: 5.08
HCC3153
  -log10 GI50: 5.01
MCF7
  -log10 GI50: 5.77
HCC1806
  -log10 GI50: 5.05
ZR751
  -log10 GI50: 6.13
MX1
  -log10 GI50: 5.45
SUM225CWN
  -log10 GI50: 6.16

## COc1cc2c(Nc3ccc(NC(=O)c4ccccc4)cc3)ncnc2cc1OCCCN1CCOCC1
HCC1143
  -log10 GI50: 6.07
CAMA1
  -log10 GI50: 5.02
184B5
  -log10 GI50: < 4.3
SUM1315MO2
  -log10 GI50: < 4.3
AU565
  -log10 GI50: 5.82
MDAMB157
  -log10 GI50: 5.66
MDAMB134VI
  -log10 GI50: 5.03
HCC2185
  -log10 GI50: 5.96
HCC1419
  -log10 GI50: 5.32
600MPE
  -log10 GI50: < 4
HCC1569
  -log10 GI50: 5.69
HCC1395
  -log10 GI50: 5.3
MCF10A
  -log10 GI50: < 4.48
BT549
  -log10 GI50: 5.47
HCC3153
  -log10 GI50: < 4
MCF7
  -log10 GI50: < 4.48
HCC1806
  -log10 GI50: < 4
ZR751
  -log10 GI50: 5.47
MX1
  -log10 GI50: 6.35
SUM225CWN
  -log10 GI50: 4.98

## O=c1cc(-c2ccccc2)oc2cc(O)c(O)c(O)c12 [Baicalein]
HCC1143
  -log10 GI50: 4.15
CAMA1
  -log10 GI50: 4.39
184B5
  -log10 GI50: < 3.78
SUM1315MO2
  -log10 GI50: 4.55
AU565
  -log10 GI50: 4.38
MDAMB157
  -log10 GI50: 4.28
MDAMB134VI
  -log10 GI50: 4.07
HCC2185
  -log10 GI50: 4.3
HCC1419
  -log10 GI50: 4.09
600MPE
  -log10 GI50: < 3.78
HCC1569
  -log10 GI50: 4.33
HCC1395
  -log10 GI50: 4.73
MCF10A
  -log10 GI50: 4.71
BT549
  -log10 GI50: 4.64
HCC3153
  -log10 GI50: 4.69
MCF7
  -log10 GI50: 4.3
HCC1806
  -log10 GI50: 4.73
ZR751
  -log10 GI50: 4.38
MX1
  -log10 GI50: 4.66
SUM225CWN
  -log10 GI50: 4.43

## COc1cc(Nc2c(C#N)cnc3cc(OCCCN4CCN(C)CC4)c(OC)cc23)c(Cl)cc1Cl [Bosutinib]
HCC1143
  -log10 GI50: 5.31
CAMA1
  -log10 GI50: 5.11
184B5
  -log10 GI50: 6.26
SUM1315MO2
  -log10 GI50: 6.12
AU565
  -log10 GI50: 5.67
MDAMB157
  -log10 GI50: 5.88
MDAMB134VI
  -log10 GI50: < 4
HCC2185
  -log10 GI50: 5.3
HCC1419
  -log10 GI50: 5.97
600MPE
  -log10 GI50: 5.27
HCC1569
  -log10 GI50: 5.76
HCC1395
  -log10 GI50: 5.93
MCF10A
  -log10 GI50: 5.85
BT549
  -log10 GI50: 5.95
HCC3153
  -log10 GI50: 5.18
MCF7
  -log10 GI50: 5.59
HCC1806
  -log10 GI50: 5.69
ZR751
  -log10 GI50: 4.94
MX1
  -log10 GI50: 6.38
SUM225CWN
  -log10 GI50: 5.81

## O=C1NC(=O)/C(=C/c2ccc(-c3ccc(F)cc3O)o2)S1
HCC1143
  -log10 GI50: < 4.18
CAMA1
  -log10 GI50: < 4.18
184B5
  -log10 GI50: 4.65
SUM1315MO2
  -log10 GI50: 4.92
AU565
  -log10 GI50: 4.88
MDAMB157
  -log10 GI50: < 4.48
MDAMB134VI
  -log10 GI50: 4.48
HCC2185
  -log10 GI50: 4.91
HCC1419
  -log10 GI50: 4.69
600MPE
  -log10 GI50: 5.19
HCC1569
  -log10 GI50: 4.54
HCC1395
  -log10 GI50: 4.22
MCF10A
  -log10 GI50: < 4.18
BT549
  -log10 GI50: < 4.48
HCC3153
  -log10 GI50: < 4.18
MCF7
  -log10 GI50: 4.8
HCC1806
  -log10 GI50: 5.25
ZR751
  -log10 GI50: 5.2
MX1
  -log10 GI50: 4.66
SUM225CWN
  -log10 GI50: 5.47

## C#Cc1cccc(Nc2ncnc3cc(OCCOC)c(OCCOC)cc23)c1 [Erlotinib]
HCC1143
  -log10 GI50: 4.24
CAMA1
  -log10 GI50: < 4.18
184B5
  -log10 GI50: 6.32
SUM1315MO2
  -log10 GI50: 5.03
AU565
  -log10 GI50: 4.93
MDAMB157
  -log10 GI50: < 4.18
MDAMB134VI
  -log10 GI50: < 4.18
HCC2185
  -log10 GI50: 4.71
HCC1419
  -log10 GI50: 5.2
600MPE
  -log10 GI50: 4.3
HCC1569
  -log10 GI50: 4.78
HCC1395
  -log10 GI50: 4.53
MCF10A
  -log10 GI50: 5.97
BT549
  -log10 GI50: 4.39
HCC3153
  -log10 GI50: 4.51
MCF7
  -log10 GI50: < 4.18
HCC1806
  -log10 GI50: 5.37
ZR751
  -log10 GI50: < 4.18
MX1
  -log10 GI50: 5.16
SUM225CWN
  -log10 GI50: 4.89

## O=C1C(Cl)=C(NCCN2CCOCC2)C(=O)c2ncccc21
HCC1143
  -log10 GI50: 5.7
CAMA1
  -log10 GI50: 5.59
184B5
  -log10 GI50: 5.57
SUM1315MO2
  -log10 GI50: 5.96
AU565
  -log10 GI50: 5.81
MDAMB157
  -log10 GI50: 5.87
MDAMB134VI
  -log10 GI50: 5.22
HCC2185
  -log10 GI50: 5.97
HCC1419
  -log10 GI50: 5.72
600MPE
  -log10 GI50: 5.34
HCC1569
  -log10 GI50: 5.36
HCC1395
  -log10 GI50: 6.15
MCF10A
  -log10 GI50: 5.65
BT549
  -log10 GI50: 5.8
HCC3153
  -log10 GI50: 5.64
MCF7
  -log10 GI50: 5.43
HCC1806
  -log10 GI50: 5.61
ZR751
  -log10 GI50: 5.76
MX1
  -log10 GI50: 6.17
SUM225CWN
  -log10 GI50: 5.64

## CCCCCN(C)CCC(O)(P(=O)(O)O)P(=O)(O)O [Ibandronate sodium]
HCC1143
  -log10 GI50: 4.38
CAMA1
  -log10 GI50: 3.82
184B5
  -log10 GI50: 3.62
SUM1315MO2
  -log10 GI50: 4.29
AU565
  -log10 GI50: 3.74
MDAMB157
  -log10 GI50: 4.36
MDAMB134VI
  -log10 GI50: 4.17
HCC2185
  -log10 GI50: 4.92
HCC1419
  -log10 GI50: 5.12
600MPE
  -log10 GI50: 3.67
HCC1569
  -log10 GI50: 4.21
HCC1395
  -log10 GI50: 4.89
MCF10A
  -log10 GI50: 3.39
BT549
  -log10 GI50: 4.53
HCC3153
  -log10 GI50: 4.05
MCF7
  -log10 GI50: 4.31
HCC1806
  -log10 GI50: 4.44
ZR751
  -log10 GI50: 4.16
MX1
  -log10 GI50: 3.94
SUM225CWN
  -log10 GI50: 3.3

## NS(=O)(=O)OC[C@@H]1C[C@@H](n2ccc3c(N[C@H]4CCc5ccccc54)ncnc32)C[C@@H]1O [MLN4924]
HCC1143
  -log10 GI50: 6.58
CAMA1
  -log10 GI50: 7.29
184B5
  -log10 GI50: 6.93
SUM1315MO2
  -log10 GI50: 5.67
AU565
  -log10 GI50: 6.74
MDAMB157
  -log10 GI50: 7.25
MDAMB134VI
  -log10 GI50: 7.06
HCC2185
  -log10 GI50: 5.62
HCC1419
  -log10 GI50: 6.68
600MPE
  -log10 GI50: 6.49
HCC1569
  -log10 GI50: 4.86
HCC1395
  -log10 GI50: 5.73
MCF10A
  -log10 GI50: 6.31
BT549
  -log10 GI50: 6.54
HCC3153
  -log10 GI50: 6.44
MCF7
  -log10 GI50: 7.16
HCC1806
  -log10 GI50: 7.67
ZR751
  -log10 GI50: 5.32
MX1
  -log10 GI50: 5.7
SUM225CWN
  -log10 GI50: 5.28

## Nc1[nH]nc2nnc(-c3c(-c4ccccc4)nn4ccccc34)cc12
HCC1143
  -log10 GI50: 4.6
CAMA1
  -log10 GI50: < 4
184B5
  -log10 GI50: 4.89
SUM1315MO2
  -log10 GI50: 4.71
AU565
  -log10 GI50: < 4.48
MDAMB157
  -log10 GI50: < 4
MDAMB134VI
  -log10 GI50: < 4
HCC2185
  -log10 GI50: < 4
HCC1419
  -log10 GI50: 4.88
600MPE
  -log10 GI50: 4.65
HCC1569
  -log10 GI50: < 4
HCC1395
  -log10 GI50: 4.56
MCF10A
  -log10 GI50: < 4.48
BT549
  -log10 GI50: < 4
HCC3153
  -log10 GI50: < 4.48
MCF7
  -log10 GI50: < 4.48
ZR751
  -log10 GI50: 5.23
MX1
  -log10 GI50: < 4.48
SUM225CWN
  -log10 GI50: 4.62

## CO[C@H]1C[C@@H]2CC[C@@H](C)[C@@](O)(O2)C(=O)C(=O)N2CCCC[C@H]2C(=O)O[C@H]([C@H](C)C[C@@H]2CC[C@@H](O)[C@H](OC)C2)CC(=O)[C@H](C)/C=C(\C)[C@@H](O)[C@@H](OC)C(=O)[C@H](C)C[C@H](C)/C=C/C=C/C=C/1C [Rapamycin]
HCC1143
  -log10 GI50: 6.27
CAMA1
  -log10 GI50: 7.82
184B5
  -log10 GI50: < 4.48
SUM1315MO2
  -log10 GI50: 5.56
AU565
  -log10 GI50: 7.62
MDAMB157
  -log10 GI50: < 3.78
MDAMB134VI
  -log10 GI50: 9.57
HCC2185
  -log10 GI50: 8.79
HCC1419
  -log10 GI50: 8.36
600MPE
  -log10 GI50: 5.12
HCC1569
  -log10 GI50: 6.7
HCC1395
  -log10 GI50: 4.84
MCF10A
  -log10 GI50: 6.34
BT549
  -log10 GI50: 5.33
HCC3153
  -log10 GI50: 5.25
MCF7
  -log10 GI50: 6.84
HCC1806
  -log10 GI50: 4.01
MX1
  -log10 GI50: 5.77
SUM225CWN
  -log10 GI50: 7.97
